# Reference: patent US20230303552A1, “ARYLSULFONYL DERIVATIVES AND THEIR USE AS MUSCARINIC ACETYLCHOLINE RECEPTOR M5 INHIBITORS” (Vanderbilt University, priority 2020, published 2023)
# Target: T1, human M5 receptors (hM5) (Homo sapiens, UniProt P08912)
# T1 construct: expressed in transfected cells
# T1 sequence (P08912 1-532): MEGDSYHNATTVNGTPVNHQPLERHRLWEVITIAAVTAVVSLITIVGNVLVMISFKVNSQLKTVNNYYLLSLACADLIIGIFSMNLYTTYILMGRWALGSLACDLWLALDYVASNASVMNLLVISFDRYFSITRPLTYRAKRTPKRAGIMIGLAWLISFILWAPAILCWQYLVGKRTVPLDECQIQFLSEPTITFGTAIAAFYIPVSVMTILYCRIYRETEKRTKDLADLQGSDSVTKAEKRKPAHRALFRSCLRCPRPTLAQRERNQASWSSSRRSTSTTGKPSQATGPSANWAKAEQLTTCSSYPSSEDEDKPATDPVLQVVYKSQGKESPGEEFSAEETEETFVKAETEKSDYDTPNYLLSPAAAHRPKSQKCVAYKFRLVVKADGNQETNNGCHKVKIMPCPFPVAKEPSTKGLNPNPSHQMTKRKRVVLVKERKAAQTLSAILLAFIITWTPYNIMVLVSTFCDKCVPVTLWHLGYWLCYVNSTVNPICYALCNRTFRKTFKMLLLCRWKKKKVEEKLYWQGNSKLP
# Experiment: Cell-based functional calcium mobilization assay of mAChR M5 activity (inhibition of EC80 acetylcholine response) in CHO cells
# Conditions: CHO cells stably expressing hM5; for IC50: calcium flux (Fluo-4), EC80 acetylcholine addition; for EC80 MIN: minimum of EC80 acetylcholine response, normalized to maximum acetylcholine response
# Method: All functional cell-based assays were performed essentially as previously described (Marlo et al., Mol.Pharm. 2009, 75(3), 577-588; Brady et al., J. Pharm. & Exp. Ther. 2008, 327, 941-953). Initial, single point (10 µM) competitive and non-competitive inhibitor characterization was performed in stable Chinese Hamster Ovary (CHO) cell lines constitutively expressing human M5 receptors. These were plated at 15,000 cells per 20 µL per well in Greiner 384-well black-walled, TC-treated, clear-bottomed plates (Fisher) in Ham’s F12 medium supplemented with 10% FBS and 20 mM HEPES. Cells were incubated overnight at 37° C. under 5% CO2. The following day, medium was exchanged with assay buffer (Hank’s Balanced Salt Solution supplemented with 20 mM HEPES and 2.5 mM Probenecid, pH 7.4) leaving 20 µL of assay buffer in each well. This was followed by the addition of 20 µL of 2.3 µM of Fluo-4 AM (Invitrogen) in assay buffer (final concentration 1.15 µM). The cells were then incubated 50 minutes at 37° C. under 5% CO2. The assay buffer plus dye was then exchanged with fresh assay buffer leaving a volume of 20 µL in each well. Test compounds were diluted into assay buffer to a 2X (20 µM) concentration in 0.2% dimethylsulfoxide (DMSO) in columns 3 - 22 with matching DMSO concentration in columns 1, 2, 23, and […]; compounds were added to the assay for a final concentration of 10 µM and a final DMSO concentration of 0.1%. Acetylcholine (Sigma-Aldrich) was prepared to provide 5X concentrations of EC20, EC80, and ECmax in the triple-addition assay, providing a signal window to view agonism, potentiation, and inhibition of the acetylcholine response as well as a means to normalize to the maximum acetylcholine response.
# Either an FDSS (Hamamatsu) or Panoptic (WaveFront Biosciences) kinetic imaging plate reader was used for assay execution and measurement of calcium flux. After establishing baseline fluorescence, test compounds (20 µL) were added to the cells using the reader’s integrated pipettor and allowed to equilibrate for 140 seconds before addition of the EC20 concentration of acetylcholine (10 µL) along with vehicle in selected DMSO-only wells in the outer two columns. The EC80 concentration of acetylcholine (10 µL) was added 125 seconds after the EC20 addition along with ECmax concentration in the wells receiving vehicle in the second addition. The raw fluorescence data from each well was normalized to the corresponding initial fluorescence reading (static ratio). The maximum fluorescence value following each addition was determined and the minimum value within that same timeframe was subtracted for each well then normalized to the average of the ECmax maximum-minimum response, providing a %AChmax value for each addition for each well. The single point values represent mean values determined within the EC80 addition timeframe obtained from at least three independent determinations performed in triplicate or greater (error bars represent +/- SEM) unless otherwise specified.
# Further characterization of competitive and non-competitive inhibitor compounds (compound potency and mAChR subtype-selectivity) was performed on the FDSS with calcium mobilization assays performed as previously described (Marlo et al., 2009; Brady et al., 2008) and in a format similar to that described above using the same reagents. CHO cells stably expressing hM1, hM2/Gqi5, hM3, hM4/Gqi5, hM5, rM1, rM2/Gqi5, rM3, rM4/Gqi5, or rMs were plated in the manner described above. A ten-point concentration range of test compound was serial diluted in assay buffer to 2X final concentration and acetylcholine was diluted in assay buffer to 5X of the EC20 and EC80 concentrations, determined empirically and 5X maximal (2 mM final concentration) stock concentrations. FDSS protocols were carried out as described above; the static ratio was calculated and the minimum response subtracted from the maximum response within the timeframe of each addition. […]
smiles,measurement,value
"O=C(Nc1ccc2scnc2c1)[C@H]1CCN(S(=O)(=O)c2ccc3c(c2)CCO3)C[C@@H]1F (racemic) [Compound 86, Trans-(rac)-N-(Benzo[d]thiazol-5-yl)-1-((2,3-Dihydrobenzofuran-5-yl)Sulfonyl)-3-Fluoropiperidine-4-Carboxamide]",IC50,177 nM
same,EC80 MIN,2%
"CC1Cc2cc(S(=O)(=O)N3CCC(C(=O)Nc4ccc5scnc5c4)CC3)ccc2O1 (racemic) [Compound 87, (rac)-N-(benzo[d]thiazol-5-yl)-1-((2-methyl-2.3-dihydrobenzofuran-5-yl)sulfonyl)piperidine-4-carboxamide]",IC50,> 10000 nM
"C[C@@H]1CN(S(=O)(=O)c2ccc3c(c2)CCO3)CC[C@@H]1C(=O)Nc1ccc2scnc2c1 (racemic) [Compound 92, cis-(rac)-,N^_ (benzo[d]thiazol-5-yl)-1-((2,3-dihydrobenzofuran-5-yl)sulfonyl)-3-methylpiperidine-4-carboxamide]",IC50,631 nM
same,EC80 MIN,4%
"C[C@@H]1CN(S(=O)(=O)c2ccc3ncsc3c2)CC[C@@H]1C(=O)Nc1ccc2scnc2c1 (racemic) [Compound 93, cis-(rac)-N-(benzo[d]thiazol-5-y1)-1-(benzo[d]thiazol-6-ylsulfonyl)-3-methylpiperidine-4-carboxamide]",IC50,2940 nM
same,EC80 MIN,4%
"C[C@@H]1CN(S(=O)(=O)c2ccc(Cl)nc2)CC[C@@H]1C(=O)Nc1ccc2scnc2c1 (racemic) [Compound 94, cis-(rac)-N-(benzo[d]thiazol-5-yl)-1-((6-chloropyridin-3-yl)sulfonyl)-3-methylpiperidine-4-carboxamide]",IC50,4570 nM
same,EC80 MIN,4%
"Cc1nn(C)cc1S(=O)(=O)N1CC[C@H](C(=O)Nc2ccc3scnc3c2)[C@H](C)C1 (racemic) [Compound 95, cis-(rac)-,N^_ (benzo[d]thiazol-5-yl)-1-((1,3-dimethyl-1H-pyrazol-4-yl)sulfonyl)-3-methylpiperidine-4-carboxamide]",IC50,4490 nM
same,EC80 MIN,5%
"C[C@@H]1CN(S(=O)(=O)c2cccc3nsnc23)CC[C@@H]1C(=O)Nc1ccc2scnc2c1 (racemic) [Compound 96, cis-(rac)-1-(benzo[c][1,2,5]thiadiazol-4-ylsulfonyl)-N-(benzo[d]thiazol-5-yl)-3-methylpiperidine-4-carboxamide]",IC50,1110 nM
same,EC80 MIN,3%
"C[C@@H]1C[C@H](C(=O)Nc2ccc3scnc3c2)CCN1S(=O)(=O)c1ccc2c(c1)CCO2 (racemic) [Compound 97, cis-(rac)-N-(benzo[d]thiazol-5-yl)-1-((2,3-dihydrobenzofuran-5-yl)sulfonyl)-2-methylpiperidine-4-carboxamide]",IC50,159 nM
same,EC80 MIN,2%
"Cc1nn(C)cc1S(=O)(=O)N1CC[C@@H](C(=O)Nc2ccc3scnc3c2)C[C@H]1C (racemic) [Compound 98, cis-(rac)-,N^_ (benzo[d]thiazol-5-yl)-1-((1,3-dimethyl-1H-pyrazol-4-yl)sulfonyl)-2-methylpiperidine-4-carboxamide]",IC50,324 nM
same,EC80 MIN,3%
"C[C@@H]1C[C@H](C(=O)Nc2ccc3scnc3c2)CCN1S(=O)(=O)c1cccc2nsnc12 (racemic) [Compound 99, cis-(rac)-1-(benzo[c][1,2.5]thiadiazol-4-ylsulfonyl)-N-(benzo[d]thiazol-5-yl)-2-methylpiperidine-4-carboxamide]",IC50,389 nM
same,EC80 MIN,3%
"C[C@@H]1CN(S(=O)(=O)c2cccnc2)CC[C@@H]1C(=O)Nc1ccc2scnc2c1 (racemic) [Compound 103, cis-(rac)-N-(benzo[d]thiazol-5-yl)-3-methyl-1-(pyridin-3-ylsulfonyl)piperidine-4-carboxamide]",IC50,> 10000 nM
same,EC80 MIN,5%
"C[C@H]1CN(S(=O)(=O)c2ccc3c(c2)CCO3)CC[C@@H]1C(=O)Nc1ccc2scnc2c1 (racemic) [Compound 116, trans-(rac)-N-(benzo[d]thiazol-5-yl)-1-((2,3-dihydrobenzofuran-5-yl)sulfonyl)-3-methylpiperidine-4-carboxamide]",IC50,1540 nM
same,EC80 MIN,3%
"C[C@H]1CN(S(=O)(=O)c2ccc3ncsc3c2)CC[C@@H]1C(=O)Nc1ccc2scnc2c1 (racemic) [Compound 117, trans-(rac)-N-(benzo[d]thiazol-5-yl)-1-(benzo[d]thiazol-6-ylsulfonyl)-3-methylpiperidine-4-carboxamide]",IC50,8920 nM
same,EC80 MIN,5%
"C[C@H]1CN(S(=O)(=O)c2ccc(Cl)nc2)CC[C@@H]1C(=O)Nc1ccc2scnc2c1 (racemic) [Compound 118, trans-(rac)-N-(benzo[d]thiazol-5-yl)-1-((6-chloropyridin-3-yl)sulfonyl)-3-methylpiperidine-4-carboxamide]",IC50,803 nM
same,EC80 MIN,4%
"C[C@H]1CN(S(=O)(=O)c2cccnc2)CC[C@@H]1C(=O)Nc1ccc2scnc2c1 (racemic) [Compound 119, trans-(rac)-N-(benzo[d]thiazol-5-yl)-3-methyl-1-(pyridin-3-ylsulfornyl)piperidine-4-carboxamide]",IC50,982 nM
same,EC80 MIN,4%
"C[C@@H]1C[C@@H](C(=O)Nc2ccc3scnc3c2)CCN1S(=O)(=O)c1ccc(Cl)nc1 (racemic) [Compound 120, trans-(rac)-N-(benzo[d]thiazol-5-yl)-1-((6-chloropyridin-3-yl)sulfonyl)-2-methylpiperidine-4-carboxamide]",IC50,275 nM
same,EC80 MIN,3%
"C[C@@H]1C[C@@H](C(=O)Nc2ccc3scnc3c2)CCN1S(=O)(=O)c1cccc2nsnc12 (racemic) [Compound 121, trans-(rac)-1-(benzo[c][1,2,5]thiadiazol-4-ylsulfonyl-N-(benzo[d]thiazol-5-yl)-2-methylpiperidine-4-carboxamide]",IC50,449 nM
same,EC80 MIN,3%
"C[C@@H]1C[C@@H](C(=O)Nc2ccc3scnc3c2)CCN1S(=O)(=O)c1ccc2c(c1)CCO2 (racemic) [Compound 122, trans-(rac)-N-(benzo[d]thiazol-5-yl)-1-((2.3-dihydrobenzofuran-5-yl)sulfonyl)-2-methylpiperidine-4-carboxamide]",IC50,94 nM
same,EC80 MIN,3%
"Cc1nn(C)cc1S(=O)(=O)N1CC[C@H](C(=O)Nc2ccc3scnc3c2)C[C@H]1C (racemic) [Compound 123, trans-(rac)-N-(benzo[d]thiazol-5-yl)-1-((1,3-dimethyl-1H-pyrazol-4-yl)sulfonyl)-2-methylpiperidine-4-carboxamide]",IC50,174 nM
same,EC80 MIN,3%
"CC1(C)COc2ccc(S(=O)(=O)N3CC4CC4(C(=O)Nc4ccc5scnc5c4)C3)cc21 (racemic) [Compound 130, (rac)-N-(benzo[d]thiazol-5-yl)-3-((3,3-dimethyl-2,3-dihydrobenzofuran-5-yl)sulfonyl)-3-azabicyclo[3.1.0)hexane-1-carboxamide]",IC50,> 10000 nM
same,EC80 MIN,62%
